In patent US12624034B2, “Non-covalent modifiers of AKT1 and uses thereof” (Terremoto Biosciences, Inc., priority 2023, dated 2026):
Where two headings read alike, the source gives them in different places.

Key:
[1] = tested on: LAPC4 prostate cancer cells, which express the AKT1 E17K allele; test: Antiproliferative effects in LAPC4 cells (CellTiter Glo, 72 h); format: cell-based; details: Homo sapiens, LAPC4, 72 h, read-out: LAPC4 proliferation IC50
Protocol: Antiproliferative Effects in LAPC4 Cells.
LAPC4 prostate cancer cells (Klein, K. A. et al. Nat Med 1997, 3, 402-408), which express the AKT1 E17K allele, were grown in IMDM media (Hyclone) supplemented with 12% FBS+1% P/S. To assess compound effects on growth, 1,000 cells/well were seeded in 384 well assay plates, incubated with compound dilutions dissolved in DMSO. After 72 h, intracellular ATP content was assessed with CellTiter Glo reagent (Promega) according to the manufacturer's instructions. IC50 values were calculated by fitting luminescence values to a log(inhibitor) vs. response Hill equation.

AKT1 E17K = target: T1, AKT1 E17K (Homo sapiens, UniProt P31749, E17K); test: Live cell AKT1 E17K target engagement by NanoBRET competitive probe displacement in HEK293 cells; format: binding; details: 2 h at 37° C.
T1 construct: expressed in transfected cells; host or cells: HEK293
Protocol: Determining live cell AKT1 E17K, AKT1 WT, and AKT2 target engagement by NanoBRET competitive probe displacement. Live cell target engagement assays were performed as described (Vasta, J. D. et al. Cell Chem Biol 2018, 25(11), 206-214). Briefly, HEK293 cells were transfected with plasmids encoding kinase-NanoLuciferase fusion proteins overnight. Cells were then treated with serial dilutions of compound and an ˜EC50 concentration of fluorescently-tagged ATP-competitive tracer (Promega). After incubation for 2 h at 37° C., luciferase substrate and extracellular luciferase inhibitor were added to all wells, and luminescent intensity at 460 nm and 600 nm were measured on a multimode plate-reader. The ratio of E600/E460 was calculated to give the tracer engagement signal (BRET). IC50 values were calculated by fitting BRET values to a log(inhibitor) vs. response Hill equation.

AKT1 WT = target: T2, AKT1 WT (Homo sapiens, UniProt P31749); test: Live cell AKT1 WT target engagement by NanoBRET competitive probe displacement in HEK293 cells; format: binding; details: 2 h at 37° C., read-out: AKT1 WT IC50
T2 construct: expressed in transfected cells; host or cells: HEK293

AKT2 = target: T3, AKT2 (Homo sapiens, UniProt P31751); test: Live cell AKT2 target engagement by NanoBRET competitive probe displacement in HEK293 cells; format: binding; details: 2 h at 37° C., read-out: AKT2 IC50
T3 construct: expressed in transfected cells; host or cells: HEK293

[2] = NanoBRET live cell target engagement, HEK293 cells
[3] = NanoBRET competitive probe displacement, live HEK293 cells

T3 sequence (P31751 whole entry): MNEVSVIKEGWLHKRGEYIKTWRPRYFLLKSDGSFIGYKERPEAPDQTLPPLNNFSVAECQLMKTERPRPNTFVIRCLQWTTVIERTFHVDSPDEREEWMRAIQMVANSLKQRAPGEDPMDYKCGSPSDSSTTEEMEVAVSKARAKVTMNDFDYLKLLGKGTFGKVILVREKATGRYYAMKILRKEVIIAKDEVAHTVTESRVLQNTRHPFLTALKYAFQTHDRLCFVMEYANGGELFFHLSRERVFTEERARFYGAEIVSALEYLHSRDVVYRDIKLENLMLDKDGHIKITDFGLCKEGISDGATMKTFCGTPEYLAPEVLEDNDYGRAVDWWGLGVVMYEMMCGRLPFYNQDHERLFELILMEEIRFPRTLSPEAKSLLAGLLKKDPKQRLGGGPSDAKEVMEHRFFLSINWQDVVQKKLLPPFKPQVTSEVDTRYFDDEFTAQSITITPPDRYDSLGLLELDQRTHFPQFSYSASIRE
T1 sequence (P31749 whole entry E17K): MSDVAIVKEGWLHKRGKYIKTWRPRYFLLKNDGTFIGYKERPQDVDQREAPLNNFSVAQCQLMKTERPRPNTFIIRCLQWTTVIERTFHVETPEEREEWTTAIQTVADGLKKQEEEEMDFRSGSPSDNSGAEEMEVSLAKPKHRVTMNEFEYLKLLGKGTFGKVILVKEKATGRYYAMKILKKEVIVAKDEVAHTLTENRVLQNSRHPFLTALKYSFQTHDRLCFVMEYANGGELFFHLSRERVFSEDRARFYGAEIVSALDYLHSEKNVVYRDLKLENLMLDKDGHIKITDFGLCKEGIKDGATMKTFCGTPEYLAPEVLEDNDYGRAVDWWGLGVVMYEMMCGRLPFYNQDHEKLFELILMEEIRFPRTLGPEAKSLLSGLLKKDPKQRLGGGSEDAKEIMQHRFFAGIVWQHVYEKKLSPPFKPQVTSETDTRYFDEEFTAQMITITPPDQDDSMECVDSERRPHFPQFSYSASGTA
T2 sequence (P31749 whole entry): as the sequence (P31749 whole entry E17K) above, with K17E counted along it

SMILES	IC50 [1] [µM]	IC50 (AKT1 E17K; [2]) [µM]	IC50 (AKT1 WT; [2]) [µM]	IC50 (AKT2; [2]) [µM]	IC50 (AKT1 E17K; [3]) [µM]	IC50 (AKT1 WT; [3]) [µM]	IC50 (AKT2; [3]) [µM]
Nc1ncccc1-c1nc2ccc(-n3cccn3)nc2n1-c1ccc2c(c1)CC[C@@H]2NC(=O)c1ccccc1 [Compound 43, (S)—N-(5-(2-(2-aminopyridin-3-yl)-5-(1H-pyrazol-1-yl)-3H-imidazo[4,5-b]pyridin-3-yl)-2,3-dihydro-1H-inden-1-yl)benzamide]	1.16	0.0442	0.0141	0.139			
Nc1ncccc1-c1nc2ccc(-n3ccc(OCCN4CCOCC4)n3)nc2n1-c1ccc2c(c1)CC[C@@H]2NC1CCN(C(=O)C2CC2)CC1 [Compound 505]	4.36				0.485	0.0176	0.547
COc1cnc(C#N)nc1N1CCC(N[C@H]2CCc3cc(-n4c(-c5cccnc5N)nc5ccc(-n6cccn6)nc54)ccc32)CC1 [Cpd 586]					0.0173	0.00698	0.043
Cn1ncc2cc(C(=O)N[C@H]3CCc4cc(-n5c(-c6cccnc6N)nc6ccc(-n7cccn7)nc65)ccc43)cnc21 [Compound 28, (S)—N-(5-(2-(2-aminopyridin-3-yl)-5-(1H-pyrazol-1-yl)-3H-imidazo[4,5-b]pyridin-3-yl)-2,3-dihydro-1H-inden-1-yl)-1-methyl-1H-pyrazolo[3,4-b]pyridine-5-carboxamide]	0.225	0.0121	0.00253	0.0066			
Nc1ncccc1-c1nc2ccc(-n3cccn3)nc2n1-c1ccc2c(c1)CC[C@@H]2NC(=O)c1cncc(F)c1 [Compound 32, (S)—N-(5-(2-(2-aminopyridin-3-yl)-5-(1H-pyrazol-1-yl)-3H-imidazo[4,5-b]pyridin-3-yl)-2,3-dihydro-1H-inden-1-yl)-5-fluoronicotinamide]	0.914	0.049	0.011	0.123			
Cc1nc(C(F)F)ccc1C(=O)N[C@H]1CCc2cc(-n3c(-c4cccnc4N)nc4ccc(-n5nccn5)nc43)ccc21 [Compound 392]	> 10	> 1	0.0413	5.53			
Nc1ncccc1-c1nc2ccc(-n3nccn3)nc2n1-c1ccc2c(c1)CC[C@@H]2NC(=O)c1ccnc2occc12 [Compound 379]	4.24	0.248	0.0126	1.28			
Nc1ncccc1-c1nc2ccc(-n3cccn3)nc2n1-c1ccc2c(c1)CC[C@@H]2NC(=O)C1COC1 [Compound 15, (S)—N-(5-(2-(2-aminopyridin-3-yl)-5-(1H-pyrazol-1-yl)-3H-imidazo[4,5-b]pyridin-3-yl)-2,3-dihydro-1H-inden-1-yl)oxetane-3-carboxamide]	> 10	> 1	0.215	4.03			
Nc1ncccc1-c1nc2ccc(-n3nccn3)nc2n1-c1ccc2c(c1)CC[C@@H]2NC(=O)c1ccnc2c1CCO2 [Compound 286]	4.81	0.897	0.0405	0.589			
Nc1ncccc1-c1nc2ccc(-n3cccn3)nc2n1-c1ccc2c(c1)CC[C@@H]2NC(=O)Cc1ccccn1 [Compound 50, (S)—N-(5-(2-(2-aminopyridin-3-yl)-5-(1H-pyrazol-1-yl)-3H-imidazo[4,5-b]pyridin-3-yl)-2,3-dihydro-1H-inden-1-yl)-2-(pyridin-2-yl)acetamide]	> 10	> 1	0.279	3.74			
COc1nccc(C(=O)N[C@H]2CCc3cc(-n4c(-c5cccnc5N)nc5ccc(-n6cccn6)nc54)ccc32)c1Cl [Compound 281]	0.95	0.0755	0.00363	0.0183			
COCCOc1ccn(-c2ccc3nc(-c4cccnc4N)n(-c4ccc5c(c4)CC[C@@H]5NC4CCN(C(=O)C5CC5)CC4)c3n2)n1 [Compound 504]	4.41				> 1	0.0143	0.665
Nc1ncccc1-c1nc2ccc(-n3cccn3)nc2n1-c1ccc2c(c1)CC[C@@H]2NC1CCN(c2cccnc2)CC1 [Compound 368]	6.62	0.406	0.0368	0.768			
Cc1ccc(C(=O)N[C@H]2CCc3cc(-n4c(-c5cccnc5N)nc5ccc(-n6nccn6)nc54)ccc32)cn1 [Compound 67]	1.14	0.229	0.015	0.636			
C#CC1(OCC(=O)N[C@H]2CCc3cc(-n4c(-c5cccnc5N)nc5ccc(-n6cccn6)nc54)ccc32)COC1 [Compound 9, N—{(S)-5-[2-(2-amino-3-pyridyl)-5-(1-pyrazolyl)-3H-1,3,4-triazainden-3-yl]-1-indanyl}(3-ethynyl-3-oxetanyloxy)acetamide]		> 1	> 1	8.89			
Cc1cc(N2CCC(N[C@H]3CCc4cc(-n5c(-c6cccnc6N)nc6ccc(-n7cccn7)nc65)ccc43)CC2)nc(C#N)n1 [Cpd 584, (S)-4-(4-((5-(2-(2-aminopyridin-3-yl)-5-(1H-pyrazol-1-yl)-3H-imidazo[4,5-b]pyridin-3-yl)-2,3-dihydro-1H-inden-1-yl)amino)piperidin-1-yl)-6-methylpyrimidine-2-carbonitrile]					0.0118	0.0061	0.0625
N#Cc1nc(N2CCC(N[C@H]3CCc4cc(-n5c(-c6cccnc6N)nc6ccc(-n7cccn7)nc65)ccc43)CC2)cs1 [Compound 593]					0.022	0.00456	0.0237
N#Cc1nccc(N2CCC(N[C@@H]3c4ccc(-n5c(-c6cccnc6N)nc6ccc(-n7cccn7)nc65)cc4CC3F)CC2)n1 (stereo partly drawn) [Compound 579]					0.00988	0.00542	0.0266
N#Cc1ncnc(N2CCC(N[C@H]3CCc4cc(-n5c(-c6cccnc6N)nc6ccc(-n7cccn7)nc65)ccc43)CC2)n1 [Compound 592]					0.0055	0.00432	0.011
CN1C(=O)CCC1CC(=O)N[C@H]1CCc2cc(-n3c(-c4cccnc4N)nc4ccc(-n5cccn5)nc43)ccc21 (mixture of isomers) [Compound 11, N—{(S)-5-[2-(2-amino-3-pyridyl)-5-(1-pyrazolyl)-3H-1,3,4-triazainden-3-yl]-1-indanyl}(1-methyl-5-oxo-2-pyrrolidinyl)acetamide]		> 1	> 1	> 10			
N#Cc1nccc(C(=O)N2CCC(N[C@H]3CCc4cc(-n5c(-c6cccnc6N)nc6ccc(-n7cccn7)nc65)ccc43)CC2)n1 [Compound 580]					0.0114	0.0112	0.0244
N#Cc1nccc(N2CC(N[C@H]3CCc4cc(-n5c(-c6cccnc6N)nc6ccc(-n7cccn7)nc65)ccc43)C2)n1 [Compound 581]					0.0208	0.00651	0.0384
Cc1cnc(C#N)nc1N1CCC(N[C@H]2CCc3cc(-n4c(-c5cccnc5N)nc5ccc(-n6cccn6)nc54)ccc32)CC1 [Compound 585]					0.00823	0.00477	0.0107
CC(=O)N[C@H]1CCc2cc(-n3c(-c4cccnc4N)nc4ccc(-n5cccn5)nc43)ccc21 [Compound 1, (S)—N-(5-(2-(2-aminopyridin-3-yl)-5-(1H-pyrazol-1-yl)-3H-imidazo[4,5-b]pyridin-3-yl)-2,3-dihydro-1H-inden-1-yl)acetamide]		> 1	> 0.737	4.31			
N#Cc1nc2c(c(N3CCC(N[C@H]4CCc5cc(-n6c(-c7cccnc7N)nc7ccc(-n8cccn8)nc76)ccc54)CC3)n1)CCC2 [Compound 603]					0.0165	0.00765	0.0768
COc1cc(-c2ccc3nc(-c4cccnc4N)n(-c4ccc5c(c4)CC(F)[C@@H]5NC4CCN(C(=O)C5CC5)CC4)c3n2)ccn1 (stereo partly drawn) [Compound 543]					0.526	0.081	1.21
Nc1ncccc1-c1nc2ccc(-n3cccn3)nc2n1-c1ccc2c(c1)CC[C@@H]2NC1CCN(C(=O)[C@H]2C[C@H]2F)CC1 [Compound 478]						0.126	3.17
Nc1ncccc1-c1nc2ccc(-n3cccn3)nc2n1-c1ccc2c(c1)CC[C@@H]2NC(=O)c1cccnc1-n1cccn1 [Compound 90]			0.228	5.85			
Cc1ccc(C(=O)N[C@H]2CCc3cc(-n4c(-c5cccnc5N)nc5ccc(-n6cccn6)nc54)ccc32)c(C(F)F)n1 [Compound 167]			0.0409	0.83			
Nc1ncccc1-c1nc2ccc(-n3cccn3)nc2n1-c1ccc2c(c1)CC[C@@H]2NC1CCc2cnccc21 (stereo partly drawn) [Compound 473]						0.019	0.028
